For the experiment, the system named is Aβ42 production. Kind of experiment: Quantification of Aβ peptide in neuronal culture from rat fetus brain (Aβ ELISA). The following applies: 72 h; rat primary neuronal culture (cerebral cortex, embryonic day 18 Wistar rats); medium collected three days after addition of compound; Aβx-42 ELISA; read-out: Aβ42 production reducing effect IC50. Type of experiment: cell-based. The protocol: Quantification of Aβ Peptide in Neuronal Culture from Rat Fetus Brain
Primary neuronal cultures were prepared from the cerebral cortex of embryonic day 18 Wistar rats (Charles River Japan, Yokohama, Japan). Specifically, the embryos were aseptically removed from pregnant rats under ether anesthesia. The brain was isolated from the embryo and immersed in an ice-cold L-15 medium (such as Invitrogen Corp. Cat #11415-064, Carlsbad, Calif., USA, or SIGMA L1518). The cerebral cortex was collected from the isolated brain under a stereoscopic microscope. The cerebral cortex fragments collected were enzymatically treated in an enzyme solution containing 0.25% trypsin (Invitrogen Corp. Cat #15050-065, Carlsbad, Calif., USA) and 0.01% DNase (Sigma D5025, St. Louis, Mo., USA) at 37° C. for 30 minutes to disperse the cells. Here, the enzymatic reaction was stopped by adding inactivated horse serum to the solution. The enzymatically treated solution was centrifuged at 1,500 rpm for five minutes to remove the supernatant. 5 to 10 ml of a medium was added to the resulting cell mass. Neurobasal medium (Invitrogen Corp. Cat #21103-049, Carlsbad, Calif., USA) supplemented with 2% B27 supplement (Invitrogen Corp. Cat #17504-044, Carlsbad, Calif., USA), 25 μM 2-mercaptoethanol (2-ME, WAKO Cat #139-06861, Osaka, Japan), 0.5 mM L-glutamine (Invitrogen Corp. Cat #25030-081, Carlsbad, Calif., USA), and Antibiotics-Antimycotics (Invitrogen Corp. Cat #15240-062, Carlsbad, Calif., USA) was used as the medium (Neurobasal/B27/2-ME). However, the above Neurobasal medium not supplemented with 2-ME (Neurobasal/B27) was used for the assay. The cells were redispersed by mild pipetting of the cell mass to which the medium was added. The cell dispersion was filtered through a 40-μm nylon mesh (Cell Strainer, Cat #35-2340, Becton Dickinson Labware, Franklin Lakes, N.J., USA) to remove the remaining cell mass, and thus a neuronal cell suspension was obtained. The neuronal cell suspension was diluted with the medium and then plated in a volume of 100 μl/well at an initial cell density of 5×10^5 cells/cm^2 in a 96-well polystyrene culture plate pre-coated with poly-L or D-lysine (Falcon Cat #35-3075, Becton Dickinson Labware, Franklin Lakes, N.J., USA coated with poly-L-lysine using the method shown below, or BIOCOAT™ cell environments Poly-D-lysine cell ware 96-well plate, Cat #35-6461, Becton Dickinson Labware, Franklin Lakes, N.J., USA). Poly-L-lysine coating was carried out as follows. 100 μg/ml of a poly-L-lysine (SIGMA P2636, St. Louis, Mo., USA) solution was aseptically prepared with a 0.15 M borate buffer (pH 8.5). […] of the solution was added to the 96-well polystyrene culture plate and incubated at room temperature for one or more hours or at 4° C. overnight or longer. The coated 96-well polystyrene culture plate was washed with sterile water four or more times, and then dried or rinsed with, for example, sterile PBS or medium, and used for cell plating. The plated cells were cultured in the culture plate at 37° C. in 5% CO2-95% air for one day. Then, the total amount of the medium was replaced with a fresh Neurobasal™/B27/2-ME medium, and then the cells were cultured for further three days.
The drug was added to the culture plate on Day 4 of culture as follows. The total amount of the medium was removed from the wells, and 180 μl/well of Neurobasal medium not containing 2-ME and containing 2% B-27 (Neurobasal/B27) was added thereto. A solution of the test compound in dimethyl sulfoxide (hereinafter abbreviated as DMSO) was diluted with Neurobasal/B27 to a concentration 10-fold higher than the final concentration. 20 μl/well of the dilution was added to and sufficiently mixed with the medium. The final DMSO concentration was 1% or less. Only DMSO was added to the control group.
The cells were cultured for three days after addition of the compound, and the total amount of the medium was collected. The resulting medium was used as an ELISA sample. […]
On the technique in general: In an ELISA, binding on a coated surface is turned into a signal by an enzyme label.

Usually IC50 stands for the point on the concentration scale where inhibition reaches its midpoint.

Molecules are shown by their SMILES.

Consider `COc1cc(NC(=O)NCC(C)(C)c2ccccc2)ccc1-n1cnc(C)c1` [Example 27, 1-[3-methoxy-4-(4-methyl-1H-imidazol-1-yl)phenyl]-3-(2-methyl-2-phenylpropyl)urea monotrifluoroacetate], for which the IC50 was determined as 540 nM.

As for `COc1cc(NC(=O)NCCCc2ccccc2)ccc1-n1cnc(C)c1` [Example 18, 1-[3-methoxy-4-(4-methyl-1H-imidazol-1-yl)phenyl]-3-(3-phenylpropyl)urea monotrifluoroacetate], the IC50 turned out to be 860 nM.

Consider `COc1cc(NC(=O)N2CCC(c3ccccc3)CC2)ccc1-n1cnc(C)c1` [Example 20, 4-phenyl-piperidine-1-carboxylic acid [3-methoxy-4-(4-methyl-1H-imidazo1-1-yl)phenyl]amide monotrifluoroacetate], for which the IC50 was 1610 nM.

As for `COc1cc(NC(=O)NCc2ccc(Cl)c(Cl)c2)ccc1-n1cnc(C)c1` [Example 8, 1-(3,4-dichlorobenzyl)-3-[3-methoxy-4-(4-methyl-1H-imidazol-1-yl)phenyl]urea], the IC50 was determined as 1710 nM.

With `COc1cc(NC(=O)NC[C@H](O)c2ccccc2)ccc1-n1cnc(C)c1` [Example 29, 1-(R)-2-hydroxy-2-phenylethyl-3-[3-methoxy-4-(4-methyl-1H-imidazol-1-yl)phenyl]urea], the IC50 was 3840 nM.

For `COc1cc(NC(=O)NCC2(c3ccccc3)Cc3ccccc3C2)ccc1-n1cnc(C)c1` [Example 15, 1-[3-methoxy-4-(4-methyl-1H-imidazol-1-yl)phenyl]-3-(2-phenyl-indan-2-ylmethyl)urea monotrifluoroacetate], the IC50 was determined as 160 nM.

With `COc1cc(NC(=O)NCCc2ccc(Cl)c(Cl)c2)ccc1-n1cnc(C)c1` [Example 11, 1-[2-(3,4-dichlorophenyl)ethyl]-3-[3-methoxy-4-(4-methyl-1H-imidazol-1-yl)phenyl]urea], the half-maximal inhibitory concentration (IC50) turned out to be 970 nM.

As for `COc1cc(NC(=O)N2CCCC(c3ccccc3)C2)ccc1-n1cnc(C)c1` (centres unmarked) [Example 21, 3-phenyl-piperidine-1-carboxylic acid [3-methoxy-4-(4-methyl-1H-imidazol-1-yl)phenyl]amide monotrifluoroacetate], the half-inhibitory concentration (IC50) is 1660 nM.

In the case of `COc1cc(NC(=O)NCC(c2ccccc2)c2ccccc2)ccc1-n1cnc(C)c1` [Example 25, 1-(2,2-diphenylethyl)-3-[3-methoxy-4-(4-methyl-1H-imidazol-1-yl)phenyl]urea monotrifluoroacetate], the IC50 was 190 nM.

On to `COc1cc(NC(=O)NCc2cc(F)c(F)c(F)c2)ccc1-n1cnc(C)c1` [Example 19, 1-[3-methoxy-4-(4-methyl-1H-imidazol-1-yl)phenyl]-3-(3,4,5-trifluorobenzyl)urea monotrifluoroacetate], for which the IC50 turned out to be 2070 nM.

Consider `COc1cc(NC(=O)NCCC(c2ccccc2)c2ccccc2)ccc1-n1cnc(C)c1` [Example 24, 1-(3,3-diphenylpropyl)-3-[3-methoxy-4-(4-methyl-1H-imidazol-1-yl)phenyl]urea monotrifluoroacetate], for which the half-inhibitory concentration (IC50) was 220 nM.

Take `COc1cc(NC(=O)N2CCCCC2CCc2ccccc2F)ccc1-n1cnc(C)c1` (centres unmarked) [Example 16, 2-[2-(2-fluorophenyl)ethyl]piperidine-1-carboxylic acid [3-methoxy-4-(4-methyl-1H-imidazol-1-yl)phenyl]amide monotrifluoroacetate]: the IC50 is 1420 nM.

For the compound `COc1cc(NC(=O)N[C@@H](C)c2ccc(F)cc2)ccc1-n1cnc(C)c1` [Example 10, 1-[(S)-1-(4-fluorophenyl)ethyl]-3-[3-methoxy-4-(4-methyl-1H-imidazol-1-yl)phenyl]urea], the IC50 was 1220 nM.

`COc1cc(NC(=O)NC(Cc2ccccc2)c2ccccc2)ccc1-n1cnc(C)c1` (centres unmarked) [Example 17, 1-(1,2-diphenyl-ethyl)-[3-methoxy-4-(4-methyl-1H-imidazol-1-yl)phenyl]urea monotrifluoroacetate]: the IC50 is 560 nM.

Turning to `COc1cc(NC(=O)NCC2c3ccccc3-c3ccccc32)ccc1-n1ccnc1` [Example 6, 1-(9H-fluoren-9-ylmethyl)-3-[4-(1H-imidazol-1-yl)-3-methoxyphenyl]urea], the IC50 is 5200 nM.

As to `COc1cc(NC(=O)NCCCc2ccc(C3CCCCC3)cc2)ccc1-n1cnc(C)c1` [Example 26, 1-[3-(4-cyclohexyl-phenyl)propyl]-3-[3-methoxy-4-(4-methyl-1H-imidazol-1-yl)phenyl]urea monotrifluoroacetate], the IC50 was determined as 230 nM.

In the case of `COc1cc(NC(=O)N[C@@H](CO)Cc2ccccc2)ccc1-n1cnc(C)c1` [Example 23, 1-((R)-1-hydroxymethyl-2-phenylethyl)-3-[3-methoxy-4-(4-methyl-1H-imidazol-1-yl)phenyl]urea], the IC50 was determined as 1050 nM.

(Values after patent publication US20100105904A1, “UREA TYPE CINNAMIDE DERIVATIVE” (priority 2006, published 2010).)
